Data: ChEMBL document CHEMBL5506003, “Design and biological evaluation of dual tubulin/HDAC inhibitors based on millepachine for treatment of prostate cancer” (Eur J Med Chem, 2024)
Active and inactive are the calls of the source. The calls are words filed in the database; no cut-off is given here.

Legend:
[1] = system: PC-3; experiment: Induction of apoptosis in human PC-3 cells assessed as early apoptotic cells at 0.16 uM incubated for 24 hrs by Annexin V-FITC and PI staining based flow cytometry (reference value: 1.32%); assay type: functional
[2] = biological target: T1, Histone deacetylase 1 (Homo sapiens, UniProt Q13547); experiment: Inhibition of HDAC1 in human PC-3 cells assessed as increase in acetylated Histone-H3 level incubated for 24 hrs by Western blotting assay; assay type: cell-based; settings: dose 0.08-0.32 µM
[3] = biological target: T1, Histone deacetylase 1; experiment: Inhibition of HDAC1 in human HeLa nuclear extracts incubated for 30 mins by fluorescence based assay; assay type: cell-free
[4] = system: PC-3; experiment: Induction of apoptosis in human PC-3 cells assessed as early apoptotic cells at 0.08 uM incubated for 24 hrs by Annexin V-FITC and PI staining based flow cytometry (reference value: 1.32%); assay type: functional
[5] = system: PC-3; experiment: Induction of cell cycle arrest in human PC-3 cells assessed as decrease in phosphorylated Cdc25c at Ser216 by Western blotting analysis; assay type: functional, cell-based; settings: dose 0.08-0.32 µM
[6] = system: PC-3; experiment: Induction of apoptosis in human PC-3 cells assessed as late apoptotic cells at 0.08 uM incubated for 24 hrs by Annexin V-FITC and PI staining based flow cytometry (reference value: 1.02%); assay type: functional
[7] = system: PC-3; experiment: Induction of cell cycle arrest in human PC-3 cells assessed as G2/M phase cells at 0.32 uM incubated for 24 hrs by PI staining based flow cytometry analysis (reference value: 12.83%); assay type: functional
[8] = Toxicity in BALB/c nude mouse xenografted with human PC-3 cells assessed as spleen damage at 10 to 20 mg/kg, iv administered every 2 days and measured after 3 weeks; assay type: organism-based; settings: in vivo, 504 h, dose 10-20 mg/kg
[9] = system: PC-3; experiment: Induction of cell cycle arrest in human PC-3 cells assessed as G1 phase cells at 0.32 uM incubated for 24 hrs by PI staining based flow cytometry analysis (reference value: 56.17%); assay type: functional
[10] = biological target: Tubulin; experiment: (§1) Inhibition of tubulin polymerization (unknown origin) measured after 60 mins by fluorescence based assay; assay type: protein-complex assay, Homo sapiens
[11] = biological target: T2, Tubulin (Homo sapiens) (UniProt P68371+Q9H4B7+P0DPH7+P68366+Q13509+Q71U36+P04350+Q3ZCM7+P07437+P68363+Q9BQE3+Q6PEY2+Q13885+Q9BVA1+Q9BUF5); experiment: as §1; assay type: protein-complex assay
[12] = Volume of distribution at steady state in Sprague-Dawley rat at 2 mg/kg, iv measured upto 24 hrs by HPLC-MS analysis; assay type: ADME, organism-based; settings: in vivo, read-out: Vdss
[13] = biological target: T3, Protein deacetylase HDAC6 (Homo sapiens, UniProt Q9UBN7); experiment: Inhibition of HDAC6 in human HeLa nuclear extracts incubated for 30 mins by fluorescence based assay; assay type: cell-free
T3 sequence (Q9UBN7 whole entry): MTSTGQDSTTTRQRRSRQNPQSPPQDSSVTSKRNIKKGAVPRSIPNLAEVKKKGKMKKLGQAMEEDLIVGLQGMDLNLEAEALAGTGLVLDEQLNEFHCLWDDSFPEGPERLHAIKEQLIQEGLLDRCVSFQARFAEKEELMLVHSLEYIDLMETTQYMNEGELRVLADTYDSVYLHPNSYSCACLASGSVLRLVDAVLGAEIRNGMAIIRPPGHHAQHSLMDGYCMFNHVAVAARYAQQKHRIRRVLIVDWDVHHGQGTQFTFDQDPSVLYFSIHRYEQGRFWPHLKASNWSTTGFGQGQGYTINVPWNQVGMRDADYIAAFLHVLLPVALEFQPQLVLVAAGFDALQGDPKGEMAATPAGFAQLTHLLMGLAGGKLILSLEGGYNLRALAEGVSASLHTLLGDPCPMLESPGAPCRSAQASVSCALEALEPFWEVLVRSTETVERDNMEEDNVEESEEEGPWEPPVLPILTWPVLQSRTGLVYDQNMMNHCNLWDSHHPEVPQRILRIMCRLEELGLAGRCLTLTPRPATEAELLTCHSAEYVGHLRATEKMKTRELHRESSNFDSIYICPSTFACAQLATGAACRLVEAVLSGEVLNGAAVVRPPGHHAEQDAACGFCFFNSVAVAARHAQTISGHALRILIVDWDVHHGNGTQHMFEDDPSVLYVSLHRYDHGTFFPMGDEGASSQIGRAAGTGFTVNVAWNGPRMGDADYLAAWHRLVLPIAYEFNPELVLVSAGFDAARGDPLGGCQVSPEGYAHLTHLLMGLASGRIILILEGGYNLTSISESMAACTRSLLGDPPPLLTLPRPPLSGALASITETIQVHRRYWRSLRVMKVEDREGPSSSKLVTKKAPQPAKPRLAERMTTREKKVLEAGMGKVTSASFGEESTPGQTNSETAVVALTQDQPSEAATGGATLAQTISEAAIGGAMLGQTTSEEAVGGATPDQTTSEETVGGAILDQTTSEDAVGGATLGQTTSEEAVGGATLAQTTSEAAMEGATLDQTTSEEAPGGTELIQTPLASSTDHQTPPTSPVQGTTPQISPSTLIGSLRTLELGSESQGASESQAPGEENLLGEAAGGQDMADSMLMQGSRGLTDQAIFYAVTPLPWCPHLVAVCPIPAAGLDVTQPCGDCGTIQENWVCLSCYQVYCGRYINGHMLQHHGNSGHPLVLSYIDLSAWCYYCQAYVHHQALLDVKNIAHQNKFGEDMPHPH

[14] = system: MDA-MB-231; experiment: Cytotoxicity against human MDA-MB-231 cells incubated for 72 hrs by MTT assay; assay type: functional, cell-based; settings: MDA-MB-231, 72 h
[15] = system: MCF7; experiment: Cytotoxicity against human MCF7 cells incubated for 72 hrs by MTT assay; settings: MCF7, 72 h
[16] = system: PC-3; experiment: Induction of ROS generation in human PC-3 cells at 0.32 uM incubated for 24 hrs by DCFH-DA staining based flow cytometry analysis (reference value: 2.63%); assay type: functional
[17] = system: PC-3; experiment: Induction of cell cycle arrest in human PC-3 cells assessed as G1 phase cells at 0.16 uM incubated for 24 hrs by PI staining based flow cytometry analysis (reference value: 56.17%); assay type: functional
[18] = system: PC-3; experiment: Induction of mitochondrial membrane potential loss in human PC-3 cells assessed as decrease in JC-1 aggregate level by measuring red fluorescence intensity at 0.16 uM incubated for 24 hrs by JC-1 staining based flow cytometry analysis (reference value: 93.5%); assay type: functional; set-up: scale not given: the % may be the effect or the level left
[19] = system: PC-3; experiment: Induction of apoptosis in human PC-3 cells assessed as late apoptotic cells at 0.32 uM incubated for 24 hrs by Annexin V-FITC and PI staining based flow cytometry (reference value: 1.02%); assay type: functional
[20] = Toxicity in BALB/c nude mouse xenografted with human PC-3 cells assessed as heart damage at 10 to 20 mg/kg, iv administered every 2 days and measured after 3 weeks; assay type: organism-based; settings: in vivo, 504 h, dose 10-20 mg/kg
[21] = system: PC-3; experiment: Induction of apoptosis in human PC-3 cells assessed as necrotic cells at 0.08 uM incubated for 24 hrs by Annexin V-FITC and PI staining based flow cytometry (reference value: 0.13%); assay type: functional
[22] = biological target: T2, Tubulin (Homo sapiens); experiment: Binding affinity to tubulin colchicine binding site in human PC-3 cells assessed as reduction in beta-tubulin adduct formation at 5 uM preincubated for 2 hrs followed by EBI addition and measured after 1.5 hrs by Western blotting assay; assay type: cell-based; set-up: scale not given: the % may be the effect or the level left; settings: time 3.5 hrs

T1 sequence (Q13547 whole entry): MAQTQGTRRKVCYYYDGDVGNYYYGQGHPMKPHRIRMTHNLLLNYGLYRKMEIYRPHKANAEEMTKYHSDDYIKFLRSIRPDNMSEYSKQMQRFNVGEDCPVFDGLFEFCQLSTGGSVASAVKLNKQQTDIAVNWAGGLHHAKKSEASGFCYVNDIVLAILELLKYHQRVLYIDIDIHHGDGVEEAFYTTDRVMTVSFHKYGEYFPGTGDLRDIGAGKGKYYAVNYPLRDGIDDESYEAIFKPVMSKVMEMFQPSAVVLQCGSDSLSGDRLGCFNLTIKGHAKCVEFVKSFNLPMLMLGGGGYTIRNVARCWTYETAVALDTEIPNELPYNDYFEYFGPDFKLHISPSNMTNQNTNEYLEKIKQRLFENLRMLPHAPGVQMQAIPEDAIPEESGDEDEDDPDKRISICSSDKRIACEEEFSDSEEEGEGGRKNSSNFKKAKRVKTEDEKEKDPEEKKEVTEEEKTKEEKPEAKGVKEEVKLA

- inhibition [2]: Dose-Dependent Effect
- IC50 [3]: 730 nM
- IC50 [10]: 4820 nM
- inhibition [11]: Dose-Dependent Effect
- Vd [12]: 0.42 L/kg
- IC50 [13]: 620 nM
- Activity [22]: 100%
SMILES: COc1ccc(/C=C/C(=O)c2ccc(OC)c3c2OC(C)(C)C=C3)cc1NCC(=O)NO
- Activity [1]: 15.5%
- Activity [4]: 2.52%
- Activity [5]: Active
- Activity [6]: 2.59%
- Activity [7]: 82.04%
- Activity [8]: Non-Toxic
- Activity [9]: 6%
- IC50 [14]: 340 nM
- IC50 [15]: 160 nM
- Activity [16]: 83.1%
- Activity [17]: 18.7%
- Activity [18]: 77.9%
- Activity [19]: 8.39%
- Activity [20]: Non-Toxic
- Activity [21]: 0.041%
